Bounds are passed on as bounds.

Assay [1] has as its target T1, TBK1 (Homo sapiens, UniProt Q9UHD2).
T1 sequence (Q9UHD2 1-729): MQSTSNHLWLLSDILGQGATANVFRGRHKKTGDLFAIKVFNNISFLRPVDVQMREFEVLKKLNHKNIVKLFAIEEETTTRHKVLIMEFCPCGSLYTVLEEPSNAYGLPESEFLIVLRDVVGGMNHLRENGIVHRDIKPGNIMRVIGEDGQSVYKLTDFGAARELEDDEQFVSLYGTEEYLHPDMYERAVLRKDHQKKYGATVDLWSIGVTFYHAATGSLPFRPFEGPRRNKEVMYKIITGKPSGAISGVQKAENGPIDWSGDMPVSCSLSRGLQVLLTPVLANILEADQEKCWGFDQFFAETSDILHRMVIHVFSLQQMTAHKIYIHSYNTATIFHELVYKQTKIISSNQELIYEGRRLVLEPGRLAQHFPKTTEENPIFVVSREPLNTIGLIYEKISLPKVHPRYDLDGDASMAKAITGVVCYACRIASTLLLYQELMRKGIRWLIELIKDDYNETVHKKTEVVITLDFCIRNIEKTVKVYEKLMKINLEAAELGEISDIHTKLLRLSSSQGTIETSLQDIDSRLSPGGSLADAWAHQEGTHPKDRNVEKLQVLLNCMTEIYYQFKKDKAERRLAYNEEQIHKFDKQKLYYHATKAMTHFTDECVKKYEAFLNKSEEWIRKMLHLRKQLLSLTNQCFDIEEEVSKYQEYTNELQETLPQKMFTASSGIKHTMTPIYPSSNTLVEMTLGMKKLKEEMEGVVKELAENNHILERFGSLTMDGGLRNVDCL
Description: TBK biochemical assay. The conditions noted are these: 10 point 1:4 dose response, 30 uM top concentration, 90 min at 25° C., LabChip EZ Reader II; read-out: TBK1_IC50. The gist of the method: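 Read-out was a Caliper LabChip mobility-shift assay, run after a 90-min, 25 °C reaction of TBK1 with substrate and compounds, quenched with stop buffer. Control wells received staurosporine at 10 uM final.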

Assay [2] deals with T2, IKKε (Homo sapiens, UniProt Q14164).
T2 sequence (Q14164 1-716): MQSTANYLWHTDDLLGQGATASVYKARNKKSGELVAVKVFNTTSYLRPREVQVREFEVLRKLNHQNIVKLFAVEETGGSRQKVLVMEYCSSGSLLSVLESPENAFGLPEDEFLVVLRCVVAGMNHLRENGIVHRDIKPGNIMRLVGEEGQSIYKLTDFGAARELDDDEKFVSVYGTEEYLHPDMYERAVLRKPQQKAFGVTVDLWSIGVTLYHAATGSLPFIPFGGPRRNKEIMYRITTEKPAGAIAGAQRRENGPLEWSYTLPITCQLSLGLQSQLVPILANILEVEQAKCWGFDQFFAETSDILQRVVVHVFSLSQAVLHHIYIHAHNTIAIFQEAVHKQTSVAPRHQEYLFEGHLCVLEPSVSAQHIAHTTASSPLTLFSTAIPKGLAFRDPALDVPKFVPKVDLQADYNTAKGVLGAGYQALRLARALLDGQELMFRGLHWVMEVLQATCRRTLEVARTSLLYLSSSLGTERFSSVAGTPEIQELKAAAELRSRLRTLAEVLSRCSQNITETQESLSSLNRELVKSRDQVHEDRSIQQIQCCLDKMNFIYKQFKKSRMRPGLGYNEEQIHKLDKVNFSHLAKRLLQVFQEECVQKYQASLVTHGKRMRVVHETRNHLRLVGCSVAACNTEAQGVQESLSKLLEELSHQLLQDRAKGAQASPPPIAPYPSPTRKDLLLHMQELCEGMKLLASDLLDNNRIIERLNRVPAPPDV
Description: IKKε biochemical assay. The settings on record: 10 point 1:4 dose response, 30 uM top concentration, 90 min at 25° C., LabChip EZ Reader II; read-out: IKKε_IC50. A digest of the protocol: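 Mobility-shift LabChip read-out followed a 90 min, 25° C. reaction of IKKε with substrate and test compound, with DMSO held at 1% final. Reactions were ended with stop buffer. Wells with 10 uM final staurosporine defined complete inhibition, and DMSO-only wells the uninhibited level.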

For `N#Cc1cc(-c2ccnc(Nc3cccc(C4CCN(C5COC5)CC4)c3)n2)ccc1OC1CCNCC1(F)F` (stereo not shown) [Example 222, 2-(3,3-Difluoro-piperidin-4-yloxy)-5-{2-[3-(1-oxetan-3-yl-piperidin-4-yl)-phenylamino]-pyrimidin-4-yl}-benzonitrile], the IC50 in assay [1] and in assay [2] was below 100 nM throughout.

Consider `N#Cc1cc(-c2ccnc(Nc3cccc(C4CCN(C5COC5)CC4)c3)n2)ccc1OC1CCN(C(=O)CO)CC1(F)F` (stereo not shown) [Example 223, 2-[3,3-Difluoro-1-(2-hydroxy-acetyl)-piperidin-4-yloxy]-5-{2-[3-(1-oxetan-3-yl-piperidin-4-yl)-phenylamino]-pyrimidin-4-yl}-benzonitrile], for which the IC50 in assay [1] and in assay [2] was below 100 nM each time.

`C[C@H](O)C(=O)N1CCC(Oc2ccc(-c3ccnc(Nc4cccc(C5CCN(C6COC6)CC5)c4)n3)cc2C#N)C(F)(F)C1` (stereo partly drawn) [Example 224, 2-[3,3-Difluoro-1-((S)-2-hydroxy-propionyl)-piperidin-4-yloxy]-5-{2-[3-(1-oxetan-3-yl-piperidin-4-yl)-phenylamino]-pyrimidin-4-yl}-benzonitrile]: the IC50 in assay [1] and in assay [2] was below 100 nM throughout.

Turning to `C[C@@H](O)C(=O)N1CCC(Oc2ccc(-c3ccnc(Nc4cccc(C5CCN(C6COC6)CC5)c4)n3)cc2C#N)C(F)(F)C1` (stereo partly drawn) [Example 225, 2-[3,3-Difluoro-1-((R)-2-hydroxy-propionyl)-piperidin-4-yloxy]-5-{2-[3-(1-oxetan-3-yl-piperidin-4-yl)-phenylamino]-pyrimidin-4-yl}-benzonitrile], the IC50 in assay [1] and in assay [2] was below 100 nM throughout.

`C[C@@H](O)C(=O)N1CCC(Oc2ccc(-c3ccnc(Nc4ccc(C5CCN(C6COC6)CC5)cc4)n3)cc2C#N)C(F)(F)C1` (stereo partly drawn) [Example 226, 2-([33-difluoro-1-[(2R)-2-hydroxypropanoyl]piperidin-4-yl]oxy)-5-[2-([4-[1-(oxetan-3-yl)piperidin-4-yl]phenyl]amino)pyrimidin-4-yl]benzonitrile]: the IC50 in assay [1] and in assay [2] was below 100 nM in each case.

As to `COc1cc(Nc2nccc(-c3ccc(OC4CCN(C(=O)[C@@H](C)O)CC4(F)F)c(C#N)c3)n2)ccc1C1CCN(C2COC2)CC1` (stereo partly drawn) [Example 227, 2-([3,3-difluoro-1-[(2R)-2-hydroxypropanoyl]piperidin-4-yl]oxy)-5-[2-([3-methoxy-4-[1-(oxetan-3-yl)piperidin-4-yl]phenyl]amino)pyrimidin-4-yl]benzonitrile], the IC50 in assay [1] and in assay [2] was below 100 nM in each case.

Regarding `COc1cc(N2CCN(C3COC3)CC2)ccc1Nc1nccc(-c2ccc(OC3CCN(C(=O)[C@H](C)O)CC3(F)F)c(C#N)c2)n1` (stereo partly drawn) [Example 228, 2-([33-difluoro-1-[(2S)-2-hydroxypropanoyl]piperidin-4-yl]oxy)-5-[2-([2-methoxy-4-[4-(oxetan-3-yl)piperazin-1-yl]phenyl]amino)pyrimidin-4-yl]benzonitrile], the IC50 in assay [1] and in assay [2] was below 100 nM throughout.

For `CCOc1cc(Nc2nccc(-c3ccc(OC4CCN(C(=O)[C@H](C)O)CC4(F)F)c(C#N)c3)n2)ccc1N1CCN(C2COC2)CC1` (stereo partly drawn) [Example 229, 2-([3,3-difluoro-1-[(2S)-2-hydroxypropanoyl]piperidin-4-yl]oxy)-5-[2-([3-ethoxy-4-[4-(oxetan-3-yl)piperazin-1-yl]phenyl]amino)pyrimidin-4-yl]benzonitrile], the IC50 in assay [1] and in assay [2] was below 100 nM in each case.

Turning to `COc1cc(Nc2nccc(-c3ccc(O[C@H]4CCN(C(=O)[C@@H](C)O)CC4(F)F)c(C#N)c3)n2)ccn1` [Example 230, 2-((S)-3,3-difluoro-1-((R)-2-hydroxypropanoyl)piperidin-4-yloxy)-5-(2-(2-methoxypyridin-4-ylamino)pyrimidin-4-yl)benzonitrile], the IC50 in assay [1] is 100 to 1000 nM; in assay [2] it was below 100 nM.

In the case of `COc1cc(Nc2nccc(-c3ccc(O[C@@H]4CCN(C(=O)[C@@H](C)O)CC4(F)F)c(C#N)c3)n2)ccn1` [Example 231, 2-((R)-3,3-difluoro-1-((R)-2-hydroxypropanoyl)piperidin-4-yloxy)-5-(2-(2-methoxypyridin-4-ylamino)pyrimidin-4-yl)benzonitrile], the IC50 in assay [1] and in assay [2] was below 100 nM each time.

For `COc1nccc(Nc2nccc(-c3ccc(OC4CCNCC4(F)F)c(C#N)c3)n2)n1` (stereo not shown) [Example 232, 2-(3,3-Difluoro-piperidin-4-yloxy)-5-[2-(2-methoxy-pyrimidin-4-ylamino)-pyrimidin-4-yl]-benzonitrile], the IC50 in assay [1] and in assay [2] was 100 to 1000 nM each time.

For `COc1nccc(Nc2nccc(-c3ccc(OC4CCN(C(=O)[C@H](C)O)CC4(F)F)c(C#N)c3)n2)n1` (stereo partly shown) [Example 233], the IC50 in assay [1] and in assay [2] was below 100 nM throughout.

On to `COc1nc(Nc2nccc(-c3ccc(OC4CCN(C(=O)CO)CC4(F)F)c(C#N)c3)n2)ccc1C1CCN(C)CC1` (stereo not drawn) [Example 234, 2-[[3,3-difluoro-1-(2-hydroxyacetyl)piperidin-4-yl]oxy]-5-(2-[[6-methoxy-5-(l-methylpiperidin-4-yl)pyridin-2-yl]amino]pyrimidin-4-yl)benzonitrile], for which the IC50 in assay [1] and in assay [2] was below 100 nM each time.

Turning to `COc1nc(Nc2nccc(-c3ccc(O[C@@H]4CCNC[C@@H]4F)c(C#N)c3)n2)ccc1C1CCN(C2COC2)CC1` [Example 235, 2-((3S,4R)-3-Fluoro-piperidin-4-yloxy)-5-[2-(2-methoxy-1′-oxetan-3-yl-1′,2′,3′,4′,5′,6′-hexahydro-[3,4′]bipyridinyl-6-ylamino)-pyrimidin-4-yl]-benzonitrile], the IC50 in assay [1] and in assay [2] was 100 to 1000 nM in each case.

With `COc1nc(Nc2nccc(-c3ccc(OC4CCN(C(=O)[C@@H](O)C(C)C)CC4(F)F)c(C#N)c3)n2)ccc1C1CCN(C2COC2)CC1` (stereo partly drawn) [Example 236, 2-[3,3-Difluoro-1-((S)-2-hydroxy-3-methyl-butyryl)-piperidin-4-yloxy]-5-[2-(2-methoxy-1′-oxetan-3-yl-1′,2′,3′,4′,5′,6′-hexahydro-[3,4′]bipyridinyl-6-ylamino)-pyrimidin-4-yl]-benzonitrile], the IC50 in assay [1] and in assay [2] was below 100 nM throughout.

`COc1nc(Nc2nccc(-c3ccc(OC4CCN(C(=O)C5(O)CC5)CC4(F)F)c(C#N)c3)n2)ccc1C1CCN(C2COC2)CC1` (stereo not shown) [Example 237, 2-[3,3-Difluoro-1-(1-hydroxy-cyclopropanecarbonyl)-piperidin-4-yloxy]-5-[2-(2-methoxy-1′-oxetan-3-yl-1′,2′,3′,4′,5′,6′-hexahydro-[3,4′]bipyridinyl-6-ylamino)-pyrimidin-4-yl]-benzonitrile]: the IC50 in assay [1] and in assay [2] was below 100 nM throughout.

`COc1nc(Nc2nccc(-c3ccc(OC4CCN(C(=O)[C@H](O)C(C)C)CC4(F)F)c(C#N)c3)n2)ccc1C1CCN(C2COC2)CC1` (stereo partly drawn) [Example 238, 2-[3,3-Difluoro-1-((R)-2-hydroxy-3-methyl-butyryl)-piperidin-4-yloxy]-5-[2-(2-methoxy-1′-oxetan-3-yl-1′,2′,3′,4′,5′,6′-hexahydro-[3,4′]bipyridinyl-6-ylamino)-pyrimidin-4-yl]-benzonitrile]: the IC50 in assay [1] and in assay [2] was 100 to 1000 nM throughout.

These data come from patent publication US20230019491A1, “PYRIMIDINE TBK/IKKe INHIBITOR COMPOUNDS AND USES THEREOF” (Merck Patent GmbH, priority 2017, published 2023).
